# Measurements published in ChEMBL document CHEMBL1152822, “Genetic analysis of the dihydrofolate reductase-thymidylate synthase gene from geographically diverse isolates of Plasmodium malariae” (Antimicrob Agents Chemother, 2007).
# Experiments:
# Type in all cases: functional, organism-based
# [1] = tested on: Plasmodium malariae; experiment: Antimalarial activity as inhibition of schizont maturation against Plasmodium malariae Thai after 40 - 70 hrs
# [2] = tested on: Plasmodium vivax; experiment: Antiplasmodial activity against Plasmodium vivax
# [3] = tested on: Plasmodium falciparum; experiment: Antiplasmodial activity against Plasmodium falciparum
IC50 [1],IC50 [2],IC50 [3],SMILES
0.0749 µg/mL,0.05 µg/mL,–,CCN(CC)CCCC(C)Nc1ccnc2cc(Cl)ccc12.Cl (stereo not given)
0.00224 µg/mL,0.008 µg/mL,4.08 µg/mL,CCc1nc(N)nc(N)c1-c1ccc(Cl)cc1 [PYRIMETHAMINE]
